Results as given in patent US12391664B2, “GluN2C/D subunit selective antagonists of the N-methyl-D-aspartate receptor” (Emory University, priority 2018, dated 2025).
Like-named read-outs stand apart in the source and are kept apart here.

Legend:
Assay type in all cases: cell-based
[1] = target: T1, recombinant rat GluN1/GluN2C (Rattus norvegicus, UniProt P35439+Q00961); test: Two-electrode voltage-clamp recordings in Xenopus laevis oocytes, GluN2C; conditions: oocytes, 100 μM glutamate and 30 μM glycine; read-out: GluN2C IC50
T1 construct: expressed in transfected cells; host or cells: Xenopus laevis oocytes injected with cRNA (GluN1:GluN2 ratio 1:2)
Method: (§1) All target compounds were evaluated for activity by the Traynelis laboratory at Emory University using two-electrode voltage-clamp recordings performed in Xenopus laevis oocytes expressing recombinant GluN2A-D subunits (Table 1). […] Two ester compounds 997-65 and 997-66 also performed no inhibition at GluN2A to GluN2D receptors. […] Consequently, for the compounds that Acker et al. already published, it was necessary to increase the concentration to 100 μM when collecting data for a concentration effect curve. […] Therefore, under this condition, we can only conclude that compound 997-67 remained potent at GluN2C/D-containing receptors, but its selectivity over GluN2A- and GluN2B-containing receptors could not be compared to 997-57. […] Finally, replacing the carboxylic acid to the bio-isostere amide yielded compounds 997-96 and 997-115, which dropped the potency 2- to 4-fold in comparison to their corresponding acids 997-74 and 997-114.
(§2) Two-electrode voltage-clamp recordings were performed in Xenopus laevis oocytes that were injected with mRNA to express recombinant rat GluN1/GluN2A, GluN1/GluN2B, GluN1/GluN2C, and GluN1/GluN2D. The recordings using unfertilized oocytes from Xenopus laevis were permitted by Emory University Institutional Animal Care and Use Committee (IACUC). An automatic injector (Nanoject II, Drummond Scientific) was used for cRNA injection using the pipettes filled with mineral oil. The cRNA that transcribed in vitro via the mMessage Machine kit (Ambion) was diluted with nuclease-free water, and then injected at GluN1/GluN2 with a ratio of 1:2. The oocytes were stored in Barth's solution that contained 88 mM NaCl, 5.0 mM Tris-HCl, 2.4 mM NaHCO3, 1.0 mM KCl, 0.84 mM MgSO4, 0.41 mM CaCl2, 0.33 mM Ca(NO3)2, 0.1 mg/ml gentamycin sulfate, 1.0 U/ml penicillin, and 1 μg/ml streptomycin at a pH of 7.4 and temperatures of 15-17° C. for two to five days before the two-electrode voltage-clamp recordings. When recording, the oocytes were placed in a perfusion chamber and continually washed with the recording solution comprised of 90 mM NaCl, 1.0 mM KCl, 0.50 mM BaCl2, 0.005 mM EDTA, and 10 mM HEPES at a pH of 7.4 and a temperature of 23° C. Glass electrodes with a tip resistance of 0.5 to 2.5 MΩ were obtained from thin-walled glass capillary tubes. Voltage electrodes and current electrodes were filled with 0.3 M and 3.0 M KCl, respectively. The recordings were executed with the oocytes membrane potential holding at −40 m V by an OC-725 amplifier (Warner Instrument Co). All compounds were dissolved in dimethyl sulfoxide (DMSO) as 20 mM stock solutions and future diluted to reach the desired concentration (0.05-0.5% (vol/vol) DMSO) in recording solution comprised of 30 μM glycine and 100 μM glutamate. Each compound was recorded 3-7 times in the least 4 oocytes from at least 2 different Xenopus laevis.
(§3) To evaluate the inhibition of compounds, the concentration-response curve was fitted with the average two-electrode voltage-clamp recording results with the equation
(§4) [formula] • where IC50 is the concentration of compounds that inhibit half maximal of the current response and N is the Hill slope.

[2] = target: T2, recombinant rat GluN1/GluN2B (Rattus norvegicus, UniProt P35439+Q00960); test: Two-electrode voltage-clamp recordings in Xenopus laevis oocytes, GluN2B; conditions: oocytes, 100 μM glutamate and 30 μM glycine
T2 construct: expressed in transfected cells; host or cells: Xenopus laevis oocytes injected with cRNA (GluN1:GluN2 ratio 1:2)
Method: as §1, §2, §3, §4

[3] = target: T3, recombinant rat GluN1/GluN2D (Rattus norvegicus, UniProt P35439+Q62645); test: Two-electrode voltage-clamp recordings in Xenopus laevis oocytes, GluN2D
T3 construct: expressed in transfected cells; host or cells: Xenopus laevis oocytes injected with cRNA (GluN1:GluN2 ratio 1:2)
Method: as §1, §2, §3, §4

[4] = target: T4, recombinant rat GluN1/GluN2D (Rattus norvegicus, UniProt Q62645); test: as above; conditions: for 2B IC50 / 2D IC50 / 2A IC50 / 2D IC50: ratio of IC50 values
T4 construct: expressed in transfected cells; host or cells: Xenopus laevis oocytes injected with cRNA (GluN1:GluN2 ratio 1:2)
Method: as §1, §2, §3, §4

[5] = target: T5, recombinant rat GluN1/GluN2B (Rattus norvegicus, UniProt Q00960); test: Two-electrode voltage-clamp recordings in Xenopus laevis oocytes, GluN2B; conditions: oocytes, 100 μM glutamate and 30 μM glycine
T5 construct: expressed in transfected cells; host or cells: Xenopus laevis oocytes injected with cRNA (GluN1:GluN2 ratio 1:2)
Method: as §1, §2, §3, §4

[6] = target: T6, recombinant rat GluN1/GluN2A (Rattus norvegicus, UniProt Q00959); test: Two-electrode voltage-clamp recordings in Xenopus laevis oocytes, GluN2A; conditions: oocytes, 100 μM glutamate and 30 μM glycine
T6 construct: expressed in transfected cells; host or cells: Xenopus laevis oocytes injected with cRNA (GluN1:GluN2 ratio 1:2)
Method: as §1, §2, §3, §4

[7] = read-out: IC50 at GluN2D-containing receptors
[8] = GluN2C and GluN2D receptors, read-out: IC50 values at GluN2C and GluN2D receptors, range over the alcohol compounds
[9] = oocytes, 100 μM glutamate and 30 μM glycine, read-out: GluN2D IC50

T4 sequence (Q62645 28-1323, other chains not shown): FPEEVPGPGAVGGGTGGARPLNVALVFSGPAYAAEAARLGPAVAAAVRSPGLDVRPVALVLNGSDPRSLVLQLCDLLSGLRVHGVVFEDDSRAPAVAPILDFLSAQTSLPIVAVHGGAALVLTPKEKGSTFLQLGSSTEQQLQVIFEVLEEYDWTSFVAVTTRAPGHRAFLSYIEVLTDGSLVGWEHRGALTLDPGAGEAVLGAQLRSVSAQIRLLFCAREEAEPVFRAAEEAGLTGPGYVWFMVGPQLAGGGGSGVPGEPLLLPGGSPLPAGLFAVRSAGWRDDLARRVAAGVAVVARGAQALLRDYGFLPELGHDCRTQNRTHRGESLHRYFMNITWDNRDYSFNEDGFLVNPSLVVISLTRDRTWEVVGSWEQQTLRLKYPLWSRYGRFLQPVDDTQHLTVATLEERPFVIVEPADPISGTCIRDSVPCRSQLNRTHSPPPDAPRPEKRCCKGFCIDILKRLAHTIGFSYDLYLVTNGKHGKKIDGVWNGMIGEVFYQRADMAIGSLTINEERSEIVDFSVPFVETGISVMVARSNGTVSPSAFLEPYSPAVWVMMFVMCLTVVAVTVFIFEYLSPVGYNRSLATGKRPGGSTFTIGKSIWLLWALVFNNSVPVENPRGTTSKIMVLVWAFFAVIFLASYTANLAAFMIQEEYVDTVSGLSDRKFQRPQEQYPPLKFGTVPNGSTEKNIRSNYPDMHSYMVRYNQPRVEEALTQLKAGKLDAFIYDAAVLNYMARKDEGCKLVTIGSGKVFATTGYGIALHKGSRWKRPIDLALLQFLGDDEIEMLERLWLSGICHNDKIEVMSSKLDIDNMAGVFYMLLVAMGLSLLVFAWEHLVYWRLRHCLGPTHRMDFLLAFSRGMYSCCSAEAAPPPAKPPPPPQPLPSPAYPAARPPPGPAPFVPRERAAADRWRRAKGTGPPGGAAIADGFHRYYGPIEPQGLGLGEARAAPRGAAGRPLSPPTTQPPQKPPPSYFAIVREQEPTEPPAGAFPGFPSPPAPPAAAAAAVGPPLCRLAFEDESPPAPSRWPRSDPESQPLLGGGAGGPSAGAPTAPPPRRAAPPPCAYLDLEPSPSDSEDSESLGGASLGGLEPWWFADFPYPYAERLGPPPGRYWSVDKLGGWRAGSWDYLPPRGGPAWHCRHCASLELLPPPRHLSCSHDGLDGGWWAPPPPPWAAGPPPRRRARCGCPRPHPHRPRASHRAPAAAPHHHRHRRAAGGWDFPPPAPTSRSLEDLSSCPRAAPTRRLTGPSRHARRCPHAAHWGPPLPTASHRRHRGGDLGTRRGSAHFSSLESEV
T3 sequence (Q62645 28-1323, other chains not shown): as above
T5 sequence (Q00960 27-1482, other chains not shown): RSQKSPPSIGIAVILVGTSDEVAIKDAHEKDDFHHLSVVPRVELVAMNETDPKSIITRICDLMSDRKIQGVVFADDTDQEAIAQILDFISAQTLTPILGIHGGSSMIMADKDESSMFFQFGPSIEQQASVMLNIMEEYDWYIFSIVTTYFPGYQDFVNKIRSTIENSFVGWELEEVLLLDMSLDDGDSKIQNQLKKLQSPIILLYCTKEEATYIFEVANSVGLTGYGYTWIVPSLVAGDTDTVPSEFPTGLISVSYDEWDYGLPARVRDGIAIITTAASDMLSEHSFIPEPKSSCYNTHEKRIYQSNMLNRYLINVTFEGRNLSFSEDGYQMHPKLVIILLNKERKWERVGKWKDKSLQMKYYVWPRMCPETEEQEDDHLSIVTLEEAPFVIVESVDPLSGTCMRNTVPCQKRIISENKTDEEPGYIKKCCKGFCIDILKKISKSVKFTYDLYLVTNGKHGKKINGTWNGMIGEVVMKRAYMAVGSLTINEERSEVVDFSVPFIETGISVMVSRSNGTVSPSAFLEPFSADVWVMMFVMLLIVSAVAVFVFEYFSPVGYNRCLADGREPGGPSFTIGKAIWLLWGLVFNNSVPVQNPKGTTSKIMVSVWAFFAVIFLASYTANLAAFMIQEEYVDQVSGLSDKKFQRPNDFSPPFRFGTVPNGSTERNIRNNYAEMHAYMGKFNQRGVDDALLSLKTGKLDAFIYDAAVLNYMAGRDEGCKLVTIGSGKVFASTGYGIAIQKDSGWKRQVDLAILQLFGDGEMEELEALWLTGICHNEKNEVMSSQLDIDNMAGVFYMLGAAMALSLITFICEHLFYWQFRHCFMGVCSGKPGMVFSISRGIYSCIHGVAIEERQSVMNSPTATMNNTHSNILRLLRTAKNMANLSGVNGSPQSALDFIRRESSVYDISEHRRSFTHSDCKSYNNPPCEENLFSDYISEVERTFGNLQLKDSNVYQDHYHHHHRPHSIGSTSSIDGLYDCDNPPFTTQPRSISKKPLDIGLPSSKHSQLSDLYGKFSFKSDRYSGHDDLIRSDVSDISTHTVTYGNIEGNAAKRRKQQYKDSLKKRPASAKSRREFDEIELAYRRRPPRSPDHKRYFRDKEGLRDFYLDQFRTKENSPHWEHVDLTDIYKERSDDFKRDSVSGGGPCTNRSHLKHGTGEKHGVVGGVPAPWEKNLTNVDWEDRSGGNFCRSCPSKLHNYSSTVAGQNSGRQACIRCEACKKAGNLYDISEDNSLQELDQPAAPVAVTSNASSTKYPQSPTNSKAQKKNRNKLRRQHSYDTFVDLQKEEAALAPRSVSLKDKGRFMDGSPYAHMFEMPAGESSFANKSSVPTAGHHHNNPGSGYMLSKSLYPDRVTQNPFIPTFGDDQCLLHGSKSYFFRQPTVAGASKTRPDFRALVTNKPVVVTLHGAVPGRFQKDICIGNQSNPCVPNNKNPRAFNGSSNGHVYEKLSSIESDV
T2 sequence (Q00960 27-1482, other chains not shown): as above

O=C(O)CC(F)(F)C(=O)N1N=C(c2c(-c3ccc(Cl)cc3)c3ccccc3[nH]c2=O)CC1c1ccc(Cl)s1 (centres unmarked) [997-110, 4-(3-(4-(4-chlorophenyl)-2-oxo-1,2-dihydroquinolin-3-yl)-5-(5-chlorothiophen-2-yl)-4,5-dihydro-1H-pyrazol-1-yl)-3,3-difluoro-4-oxobutanoic acid]
IC50 [1]: 0.43 µM
IC50 [2]: 100 µM
IC50 [3, 7]: 0.16 µM
selectivity at GluN2D- over GluN2B-containing receptor [4]: 625 fold
fold decrease of potency at GluN2D in comparison to 997-74 ([4]; comparator 997-74): 3 fold
2B IC50 / 2D IC50 [4]: 625

O=C(O)CCC(=O)N1N=C(c2c(-c3ccncc3)c3ccccc3[nH]c2=O)CC1c1ccc(Cl)cc1 (centres unmarked) [997-82, 4-(5-(4-chlorophenyl)-3-(2-oxo-4-(pyridin-4-yl)-1,2-dihydroquinolin-3-yl)-4,5-dihydro-1H-pyrazol-1-yl)-4-oxobutanoic acid]
GluN2B IC50 [5]: NE (NE indicates less than 50% inhibition at 30 μM.)
GluN2A IC50 [6]: NE (NE indicates less than 50% inhibition at 30 μM.)

O=C(N1N=C(c2c(-c3ccc(Cl)cc3)c3ccccc3[nH]c2=O)CC1c1ccc(Cl)cc1)C(F)(F)CCO (centres unmarked) [997-75, 4-(4-chlorophenyl)-3-[5-(4-chlorophenyl)-1-(2,2-difluoro-4-hydroxybutanoyl)-4,5-dihydro-1H-pyrazol-3-yl]quinolin-2(1H)-one]
IC50 [1]: 17 µM
GluN2B IC50 [5]: NE (NE indicates less than 50% inhibition at 30 μM.)
IC50 [3, 8]: 0.8 to 2 µM
IC50 [3, 9]: 2 µM
GluN2A IC50 [6]: NE (NE indicates less than 50% inhibition at 30 μM.)

O=C(O)CCC(=O)N1N=C(c2ccccc2-c2ccc(Cl)cc2)CC1c1ccc(Cl)cc1 (centres unmarked) [997-99, 4-(3-(4′-chloro-[1,1′-biphenyl]-2-yl)-5-(4-chlorophenyl)-4,5-dihydro-1H-pyrazol-1-yl)-4-oxobutanoic acid]
IC50 [1]: 16 µM
GluN2B IC50 [5]: NE (NE indicates less than 50% inhibition at 30 μM.)
IC50 [3, 9]: 12 µM
GluN2A IC50 [6]: NE (NE indicates less than 50% inhibition at 30 μM.)

O=C(O)CC(F)(F)C(=O)N1N=C(c2ccccc2-c2ccc(F)cc2F)CC1c1ccc(Cl)cc1 (centres unmarked) [997-121, 4-(5-(4-chlorophenyl)-3-(2′,4′-difluoro-[1,1′-biphenyl]-2-yl)-4,5-dihydro-1H-pyrazol-1-yl)-3,3-difluoro-4-oxobutanoic acid]
IC50 [1]: 13.5 µM
GluN2B IC50 [5]: NE (NE indicates less than 50% inhibition at 30 μM.)
IC50 [3, 9]: 12.3 µM
fold decrease of activity in comparison to 997-95 ([4]; comparator 997-95): 2 fold
GluN2A IC50 [6]: NE (NE indicates less than 50% inhibition at 30 μM.)

O=C(CC(F)(F)CO)N1N=C(c2c(-c3cccc(F)c3)c3ccccc3[nH]c2=O)CC1c1ccc(Cl)cc1 (centres unmarked) [997-68, 3-[5-(4-chlorophenyl)-1-(3,3-difluoro-4-hydroxybutanoyl)-4,5-dihydro-1H-pyrazol-3-yl]-4-(3-fluorophenyl)quinolin-2(1H)-one]
IC50 [1]: 4.3 µM
GluN2B IC50 [5]: NE (NE indicates less than 50% inhibition at 30 μM.)
IC50 [3, 8]: 0.8 to 2 µM
IC50 [3, 9]: 1.4 µM
GluN2A IC50 [6]: NE (NE indicates less than 50% inhibition at 30 μM.)

O=C(O)CC(F)(F)C(=O)N1N=C(c2ccccc2-c2ccc(Cl)cc2)CC1c1ccc(Cl)cc1 (centres unmarked) [997-95, 4-(3-(4′-chloro-[1,1′-biphenyl]-2-yl)-5-(4-chlorophenyl)-4,5-dihydro-1H-pyrazol-1-yl)-3,3-difluoro-4-oxobutanoic acid]
IC50 [1]: 4.8 µM
IC50 [2]: 6.4 µM
IC50 [3, 9]: 6.2 µM
2A IC50 / 2D IC50 [4]: 5
2B IC50 / 2D IC50 [4]: 1

O=C(O)CC(F)(F)C(=O)N1N=C(c2c(-c3ccc(F)cc3)c3ccccc3[nH]c2=O)CC1c1ccc(F)cc1 (centres unmarked) [997-103, 3,3-difluoro-4-(5-(4-fluorophenyl)-3-(4-(4-fluorophenyl)-2-oxo-1,2-dihydroquinolin-3-yl)-4,5-dihydro-1H-pyrazol-1-yl)-4-oxobutanoic acid]
IC50 [1]: 7 µM
GluN2B IC50 [5]: NE (NE indicates less than 50% inhibition at 30 μM.)
IC50 [3, 9]: 3.1 µM
GluN2A IC50 [6]: NE (NE indicates less than 50% inhibition at 30 μM.)

Cc1ccc2[nH]c(=O)c(C3=NN(C(=O)CC(F)(F)CO)C(c4ccc(Cl)cc4)C3)c(-c3ccc(Cl)cc3)c2c1 (centres unmarked) [997-91, 4-(4-chlorophenyl)-3-[5-(4-chlorophenyl)-1-(3,3-difluoro-4-hydroxybutanoyl)-4,5-dihydro-1H-pyrazol-3-yl]-6-methylquinolin-2(1H)-one]
IC50 [1]: 7.1 µM
GluN2B IC50 [5]: NE (NE indicates less than 50% inhibition at 30 μM.)
IC50 [3, 9]: 4.4 µM
GluN2A IC50 [6]: NE (NE indicates less than 50% inhibition at 30 μM.)

O=C(O)CCC(=O)N1N=C(c2c(-c3ccc(F)cc3)c3ccccc3[nH]c2=O)CC1c1ccc(F)cc1 (centres unmarked) [997-105, 4-(5-(4-fluorophenyl)-3-(4-(4-fluorophenyl)-2-oxo-1,2-dihydroquinolin-3-yl)-4,5-dihydro-1H-pyrazol-1-yl)-4-oxobutanoic acid]
IC50 [1]: 6.7 µM
GluN2B IC50 [5]: NE (NE indicates less than 50% inhibition at 30 μM.)
IC50 [3, 9]: 5.1 µM
GluN2A IC50 [6]: NE (NE indicates less than 50% inhibition at 30 μM.)

NC(=O)CC(F)(F)C(=O)N1N=C(c2c(-c3ccc(Cl)cc3)c3ccccc3[nH]c2=O)CC1c1ccc(Cl)cc1 (centres unmarked) [997-96, 4-(5-(4-chlorophenyl)-3-(4-(4-chlorophenyl)-2-oxo-1,2-dihydroquinolin-3-yl)-4,5-dihydro-1H-pyrazol-1-yl)-3,3-difluoro-4-oxobutanamide]
IC50 [1]: 0.5 µM
IC50 [2]: 2.8 µM
IC50 [3, 9]: 0.2 µM
2A IC50 / 2D IC50 [4]: 150
2B IC50 / 2D IC50 [4]: 14

O=C(O)CC(F)(F)C(=O)N1N=C(c2c(-c3ccc(Cl)cc3)c3ccccc3[nH]c2=S)CC1c1ccc(Cl)cc1 (centres unmarked) [997-98, 4-(5-(4-chlorophenyl)-3-(4-(4-chlorophenyl)-2-thioxo-1,2-dihydroquinolin-3-yl)-4,5-dihydro-1H-pyrazol-1-yl)-3,3-difluoro-4-oxobutanoic acid]
IC50 [1]: 0.44 µM
GluN2B IC50 [5]: inactive
GluN2B IC50 ([5]; listed as 98): NE (NE indicates less than 50% inhibition at 30 μM.)
IC50 [3, 7]: 0.14 µM
GluN2A IC50 [6]: inactive
GluN2A IC50 ([6]; listed as 98): NE (NE indicates less than 50% inhibition at 30 μM.)

O=C(CC(F)(F)CO)N1N=C(c2c(-c3ccc(Cl)cc3)c3ccccc3[nH]c2=O)CC1c1ccc(Cl)cc1 (centres unmarked) [997-67, 4-(4-chlorophenyl)-3-[5-(4-chlorophenyl)-1-(3,3-difluoro-4-hydroxybutanoyl)-4,5-dihydro-1H-pyrazol-3-yl]quinolin-2(1H)-one]
GluN2B IC50 [5]: NE (NE indicates less than 50% inhibition at 30 μM.)
IC50 [3, 8]: 0.8 to 2 µM
GluN2A IC50 [6]: NE (NE indicates less than 50% inhibition at 30 μM.)

NC(=O)C(F)(F)CC(=O)N1N=C(c2c(-c3ccc(Cl)cc3)c3ccccc3[nH]c2=O)CC1c1ccc(Cl)cc1 (centres unmarked) [997-115, 4-(5-(4-chlorophenyl)-3-(4-(4-chlorophenyl)-2-oxo-1,2-dihydroquinolin-3-yl)-4,5-dihydro-1H-pyrazol-1-yl)-2,2-difluoro-4-oxobutanamide]
IC50 [1]: 1.44 µM
GluN2B IC50 [5]: NE (NE indicates less than 50% inhibition at 30 μM.)
IC50 [3, 9]: 0.343 µM
GluN2A IC50 [6]: NE (NE indicates less than 50% inhibition at 30 μM.)
